Several values for one entry are separate records, joined by “and”; a condition that tells them apart may be missing. Identical values can stand only once. Toxic doses and inconclusive results are not listed.
System: CD2F1 mice, L1210 leukemia ip, survival T/C
Assay: NCI In Vivo Anticancer Drug Screen. Data for tumor model L1210 Leukemia (intraperitoneal) in CD2F1 (CDF1) mice
Conditions: higher = longer survival
Method in brief: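 In this screen, transplantable tumors were grown in mice given either the compound or its vehicle. Results were expressed as the treated measurement relative to the control measurement.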

[1] = endpoint: mean survival time, dose: 50.0 mg/kg/injection, schedule: Q01DX009 (ip), vehicle: saline with Tween-80
[2] = endpoint: mean survival time, dose: 100.0 mg/kg/injection, schedule: Q01DX009 (ip), vehicle: saline with Tween-80
[3] = endpoint: mean survival time, dose: 200.0 mg/kg/injection, schedule: Q01DX009 (ip), vehicle: saline with Tween-80
[4] = endpoint: mean survival time, dose: 400.0 mg/kg/injection, schedule: Q01DX009 (ip), vehicle: saline with Tween-80
[5] = endpoint: mean survival time, dose: 100.0 mg/kg/injection, schedule: Q04DX003 (ip), vehicle: saline with Tween-80
[6] = endpoint: mean survival time, dose: 200.0 mg/kg/injection, schedule: Q04DX003 (ip), vehicle: saline with Tween-80
[7] = endpoint: mean survival time, dose: 100.0 mg/kg/injection, schedule: Q04DX002 (ip), vehicle: saline with Tween-80
[8] = endpoint: mean survival time, dose: 200.0 mg/kg/injection, schedule: Q04DX002 (ip), vehicle: saline with Tween-80
[9] = endpoint: mean survival time, dose: 400.0 mg/kg/injection, schedule: Q04DX002 (ip), vehicle: saline with Tween-80
[10] = endpoint: mean survival time, dose: 25.0 mg/kg/injection, schedule: Q01DX009 (ip), vehicle: saline with Tween-80

With C[C@H](N)C(=O)N[C@@H]1[C@H]2C(=C(O)C[C@@H](O)[C@@H]2O)C(=O)O[C@]1(C)C(Cl)Cl the T/C (endpoint: median survival time, dose: 0.07 mg/kg/injection, schedule: Q03HX024 (ip), vehicle: saline) was 106 % of control, the T/C (endpoint: median survival time, dose: 0.09 mg/kg/injection, schedule: Q01DX009 (ip), vehicle: saline) was 106 % of control and 109 % of control and the T/C (endpoint: median survival time, dose: 0.14 mg/kg/injection, schedule: Q03HX024 (ip), vehicle: saline) was 120 % of control. The T/C (endpoint: median survival time, dose: 0.18 mg/kg/injection, schedule: Q01DX009 (ip), vehicle: saline) was 114 % of control and 118 % of control, the T/C (endpoint: median survival time, dose: 0.19 mg/kg/injection, schedule: Q01DX009 (ip), vehicle: Klucel (hydroxypropylcellulose) (HPC)) was 105 % of control and 110 % of control and 112 % of control and the T/C (endpoint: median survival time, dose: 0.21 mg/kg/injection, schedule: Q03HX008 (ip), vehicle: saline) was 103 % of control. The T/C (endpoint: median survival time, dose: 0.28 mg/kg/injection, schedule: Q03HX024 (ip), vehicle: saline) was 124 % of control, the T/C (endpoint: median survival time, dose: 0.34 mg/kg/injection, schedule: Q01DX005 (ip), vehicle: saline) was 116 % of control and the T/C (endpoint: median survival time, dose: 0.34 mg/kg/injection, schedule: Q01DX005 (iv), vehicle: saline) was 98 % of control. For the same compound, the T/C (endpoint: median survival time, dose: 0.37 mg/kg/injection, schedule: Q01DX009 (ip), vehicle: Klucel (hydroxypropylcellulose) (HPC)) was 120 % of control, the T/C (endpoint: median survival time, dose: 0.37 mg/kg/injection, schedule: Q01DX009 (ip), vehicle: saline) was 124 % of control and the T/C (endpoint: median survival time, dose: 0.37 mg/kg/injection, schedule: Q01DX009 (ip), vehicle: water) was 118 % of control. For the same compound, the T/C (endpoint: median survival time, dose: 0.38 mg/kg/injection, schedule: Q01DX009 (ip), vehicle: Klucel (hydroxypropylcellulose) (HPC)) was 117 % of control and 123 % of control and 111 % of control, the T/C (endpoint: median survival time, dose: 0.42 mg/kg/injection, schedule: Q03HX008 (ip), vehicle: saline) was 116 % of control and the T/C (endpoint: median survival time, dose: 0.56 mg/kg/injection, schedule: Q04DX003 (ip), vehicle: saline) was 113 % of control. For the same compound, the T/C (endpoint: median survival time, dose: 0.68 mg/kg/injection, schedule: Q01DX005 (iv), vehicle: saline) was 109 % of control, the T/C (endpoint: median survival time, dose: 0.75 mg/kg/injection, schedule: Q01DX009 (ip), vehicle: saline) was 150 % of control and 152 % of control and 155 % of control and the T/C (endpoint: median survival time, dose: 1.13 mg/kg/injection, schedule: Q04DX003 (ip), vehicle: saline) was 116 % of control. The T/C (endpoint: median survival time, dose: 1.5 mg/kg/injection, schedule: Q01DX009 (ip), vehicle: saline) was 155 % of control and 176 % of control and 190 % of control, the T/C (endpoint: median survival time, dose: 1.5 mg/kg/injection, schedule: Q01DX009 (ip), vehicle: water) was 153 % of control and the T/C (endpoint: median survival time, dose: 1.69 mg/kg/injection, schedule: Q01DX001 (ip), vehicle: saline) was 112 % of control. For the same compound, the T/C (endpoint: median survival time, dose: 1.69 mg/kg/injection, schedule: Q01DX001 (iv), vehicle: saline) was 101 % of control, the T/C (endpoint: median survival time, dose: 2.25 mg/kg/injection, schedule: Q04DX003 (ip), vehicle: saline) was 124 % of control and the T/C (endpoint: median survival time, dose: 2.7 mg/kg/injection, schedule: Q01DX005 (ip), vehicle: saline) was 167 % of control. For the same compound, the T/C (endpoint: median survival time, dose: 3.0 mg/kg/injection, schedule: Q01DX009 (oral), vehicle: saline) was 100 % of control, the T/C (endpoint: median survival time, dose: 3.38 mg/kg/injection, schedule: Q01DX001 (ip), vehicle: saline) was 116 % of control and the T/C (endpoint: median survival time, dose: 3.38 mg/kg/injection, schedule: Q01DX001 (iv), vehicle: saline) was 113 % of control. For the same compound, the T/C (endpoint: median survival time, dose: 6.0 mg/kg/injection, schedule: Q01DX009 (ip), vehicle: water) was 91 % of control, the T/C (endpoint: median survival time, dose: 6.0 mg/kg/injection, schedule: Q01DX009 (oral), vehicle: saline) was 97 % of control and the T/C (endpoint: median survival time, dose: 12.0 mg/kg/injection, schedule: Q01DX009 (oral), vehicle: saline) was 100 % of control. For the same compound, the T/C (endpoint: median survival time, dose: 24.0 mg/kg/injection, schedule: Q01DX009 (oral), vehicle: saline) was 112 % of control.
With CC(CCOP(=O)(N(C)C)N(CCCl)CCCl)OCc1ccccc1 (stereo not drawn) the T/C (endpoint: mean survival time, dose: 25.0 mg/kg/injection, schedule: Q01DX001 (ip), vehicle: other) was 101 % of control, the T/C (endpoint: mean survival time, dose: 50.0 mg/kg/injection, schedule: Q01DX001 (ip), vehicle: other) was 102 % of control and the T/C (endpoint: mean survival time, dose: 100.0 mg/kg/injection, schedule: Q01DX001 (ip), vehicle: other) was 98 % of control. The T/C (endpoint: mean survival time, dose: 200.0 mg/kg/injection, schedule: Q01DX001 (ip), vehicle: other) was 87 % of control and the T/C (endpoint: mean survival time, dose: 400.0 mg/kg/injection, schedule: Q01DX001 (ip), vehicle: other) was 95 % of control.
CC12CCC3C4CCC(=O)C(O)=C4CCC3C1CCC2OC(=O)CCC1CCCC1 (stereo not drawn) was tested, and the T/C (endpoint: mean survival time, dose: 100.0 mg/kg/injection, schedule: Q04DX003 (sc), vehicle: steriod suspending solution) was 101 % of control, the T/C (endpoint: mean survival time, dose: 200.0 mg/kg/injection, schedule: Q04DX003 (sc), vehicle: steriod suspending solution) was 104 % of control and the T/C (endpoint: mean survival time, dose: 400.0 mg/kg/injection, schedule: Q04DX003 (sc), vehicle: steriod suspending solution) was 104 % of control.
c1ccc(NSc2ccccc2)cc1 was tested, and the T/C [1] was 101 % of control, the T/C [2] was 101 % of control and the T/C [3] was 96 % of control.
CCOC(=O)NNC(=O)Nc1ccccc1F was tested, and the T/C [2] was 104 % of control, the T/C [3] was 88 % of control and the T/C [4] was 94 % of control.
For O=Cc1cc(Cl)ccc1O, the T/C [2] was 108 % of control, the T/C [5] was 95 % of control and the T/C [3] was 102 % of control. The T/C [6] was 95 % of control.
In the case of Nc1nc2c(ncn2CCCCc2ccccc2)c(=O)[nH]1, the T/C [7] is reported as 94 % of control, the T/C [8] is reported as 94 % of control and the T/C [9] is reported as 94 % of control.
CC(C)(CC/C(=N\Nc1ccc([N+](=O)[O-])cc1[N+](=O)[O-])c1ccccc1)C1OCCO1 was tested, and the T/C (endpoint: mean survival time, dose: 50.0 mg/kg/injection, schedule: Q04DX002 (ip), vehicle: saline with Tween-80) was 90 % of control, the T/C [7] was 98 % of control and the T/C [8] was 94 % of control.
For CCOC(=O)c1c(C)cc(O)cc1O, the T/C [5] was 95 % of control, the T/C [6] was 95 % of control and the T/C (endpoint: mean survival time, dose: 400.0 mg/kg/injection, schedule: Q04DX003 (ip), vehicle: saline with Tween-80) was 95 % of control.
CC(=O)Oc1cccc(C#N)c1 was tested, and the T/C [2] was 100 % of control, the T/C [3] was 100 % of control and the T/C [4] was 96 % of control.
ClC1=C(Cl)C2(Cl)C=CC1(Cl)C2(Cl)Cl was tested, and the T/C [10] was 97 % of control, the T/C [1] was 90 % of control and the T/C [5] was 105 % of control.
With CCOc1ccc([N+](=O)[O-])cc1[N+](=O)[O-] the T/C (endpoint: mean survival time, dose: 25.0 mg/kg/injection, schedule: Q04DX003 (ip), vehicle: saline with Tween-80) was 93 % of control, the T/C (endpoint: mean survival time, dose: 50.0 mg/kg/injection, schedule: Q04DX003 (ip), vehicle: saline with Tween-80) was 98 % of control and the T/C [5] was 94 % of control.
For COC(=O)C1CCCCC1C(=O)OC (stereo not drawn), the T/C [7] was 97 % of control, the T/C [5] was 104 % of control and the T/C [8] was 97 % of control. For the same compound, the T/C [6] was 98 % of control and the T/C [9] was 101 % of control.
For Cc1ccc(C(=O)Nc2ncn(C3CC(O)C(CO)O3)c(=O)n2)cc1 (stereo not drawn), the T/C (endpoint: mean survival time, dose: 1.56 mg/kg/injection, schedule: Q01DX005 (ip), vehicle: saline with Tween-80) was 116 % of control, the T/C (endpoint: mean survival time, dose: 3.13 mg/kg/injection, schedule: Q01DX005 (ip), vehicle: saline with Tween-80) was 154 % of control and the T/C (endpoint: mean survival time, dose: 6.25 mg/kg/injection, schedule: Q01DX005 (ip), vehicle: saline with Tween-80) was 276 % of control. For the same compound, the T/C (endpoint: mean survival time, dose: 12.5 mg/kg/injection, schedule: Q01DX005 (ip), vehicle: saline with Tween-80) was 244 % of control and the T/C (endpoint: mean survival time, dose: 50.0 mg/kg/injection, schedule: Q01DX005 (ip), vehicle: saline with Tween-80) was 92 % of control.
For N#CCc1nn(C2OC(CO)C(O)C2O)nc1C(N)=O (stereo not drawn), the T/C (endpoint: median survival time, dose: 8.5 mg/kg/injection, schedule: Q01DX005 (ip), vehicle: water) was 103 % of control, the T/C (endpoint: median survival time, dose: 17.0 mg/kg/injection, schedule: Q01DX005 (ip), vehicle: water) was 103 % of control and the T/C (endpoint: median survival time, dose: 34.0 mg/kg/injection, schedule: Q01DX005 (ip), vehicle: water) was 100 % of control. For the same compound, the T/C (endpoint: median survival time, dose: 38.0 mg/kg/injection, schedule: Q01DX005 (ip), vehicle: water) was 97 % of control and the T/C (endpoint: median survival time, dose: 136.0 mg/kg/injection, schedule: Q01DX005 (ip), vehicle: water) was 100 % of control.
With CCCCN(C)CCNc1cc(C)nc(Nc2nc3ccc(Cl)cc3[nH]2)n1 the T/C (endpoint: mean survival time, dose: 16.5 mg/kg/injection, schedule: Q01DX009 (ip), vehicle: saline with Tween-80) was 88 % of control, the T/C [10] was 97 % of control and the T/C (endpoint: mean survival time, dose: 37.5 mg/kg/injection, schedule: Q01DX009 (ip), vehicle: saline with Tween-80) was 95 % of control. The T/C [1] was 90 % of control, the T/C (endpoint: mean survival time, dose: 100.0 mg/kg/injection, schedule: Q01DX001 (ip), vehicle: saline with Tween-80) was 90 % of control and the T/C (endpoint: mean survival time, dose: 200.0 mg/kg/injection, schedule: Q01DX001 (ip), vehicle: saline with Tween-80) was 94 % of control.
In the case of NC(=O)COc1ccc(Br)cc1, the T/C [7] is reported as 102 % of control and the T/C [8] is reported as 98 % of control.
In the case of N=C(N)c1ccc(OCCCCOc2ccc(NC(=O)Nc3cc(S(=O)(=O)F)ccc3Cl)cc2)cc1, the T/C (endpoint: mean survival time, dose: 75.0 mg/kg/injection, schedule: Q01DX001 (ip), vehicle: saline with Tween-80) is reported as 95 % of control, the T/C (endpoint: mean survival time, dose: 150.0 mg/kg/injection, schedule: Q01DX001 (ip), vehicle: saline with Tween-80) is reported as 90 % of control and the T/C (endpoint: mean survival time, dose: 300.0 mg/kg/injection, schedule: Q01DX001 (ip), vehicle: saline with Tween-80) is reported as 95 % of control.

From PubChem BioAssay AID256 (DTP/NCI, 2004)
